Each structure is given as a SMILES string.

The target in experiment [1] is Homeodomain-interacting protein kinase 3 (Homo sapiens) (UniProt Q9H422). Kind of experiment: Percentage HIPK3 activity remaining in the presence of 0.1uM inhibitor.
Experiment [2] concerns the target Mitogen-activated protein kinase 14 (Homo sapiens, UniProt Q16539). Kind of experiment: Percentage p38alpha activity remaining in the presence of 0.01uM inhibitor.
The target in experiment [3] is Serine/threonine-protein kinase Nek6 (Homo sapiens) (UniProt Q9HC98). Kind of experiment: Percentage NEK6 activity remaining in the presence of 0.01uM inhibitor.
Serine/threonine-protein kinase Nek6 (Homo sapiens), sequence (Q9HC98 whole entry): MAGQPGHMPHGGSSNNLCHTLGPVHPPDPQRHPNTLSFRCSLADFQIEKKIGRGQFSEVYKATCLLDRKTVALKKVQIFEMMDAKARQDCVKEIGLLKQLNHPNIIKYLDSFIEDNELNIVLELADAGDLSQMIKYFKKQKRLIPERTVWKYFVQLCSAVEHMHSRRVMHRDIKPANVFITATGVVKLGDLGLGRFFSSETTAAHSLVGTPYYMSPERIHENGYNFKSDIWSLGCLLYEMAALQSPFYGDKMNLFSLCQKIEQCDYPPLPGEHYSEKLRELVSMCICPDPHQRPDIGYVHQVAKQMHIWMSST
In experiment [4] the target is Proto-oncogene tyrosine-protein kinase LCK (Mus musculus) (UniProt P06240). Kind of experiment: Percentage Lck activity remaining in the presence of 0.01uM inhibitor.
Proto-oncogene tyrosine-protein kinase LCK (Mus musculus), sequence (P06240 2-509 limits assumed): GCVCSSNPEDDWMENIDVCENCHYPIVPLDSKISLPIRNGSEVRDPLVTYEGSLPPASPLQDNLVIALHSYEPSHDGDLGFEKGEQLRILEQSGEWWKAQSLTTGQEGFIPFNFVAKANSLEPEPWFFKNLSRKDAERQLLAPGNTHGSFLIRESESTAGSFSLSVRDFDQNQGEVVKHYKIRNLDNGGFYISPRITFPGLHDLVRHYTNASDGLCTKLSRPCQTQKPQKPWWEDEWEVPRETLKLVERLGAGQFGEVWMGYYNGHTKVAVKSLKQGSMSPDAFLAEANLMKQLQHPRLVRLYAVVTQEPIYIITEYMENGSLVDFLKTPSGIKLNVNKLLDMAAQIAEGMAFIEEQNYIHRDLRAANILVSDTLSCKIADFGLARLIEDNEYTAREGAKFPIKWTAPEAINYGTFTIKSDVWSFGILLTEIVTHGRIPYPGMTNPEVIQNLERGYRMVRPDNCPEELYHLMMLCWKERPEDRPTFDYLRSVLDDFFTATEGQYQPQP
The target in experiment [5] is cAMP-dependent protein kinase catalytic subunit alpha (Homo sapiens, UniProt P17612). Nature of the experiment: Percentage PKA activity remaining in the presence of 0.01uM inhibitor.
For experiment [6], the target named is T1, MAP kinase-activated protein kinase 5 (Homo sapiens) (UniProt Q8IW41).
T1 sequence (whole entry): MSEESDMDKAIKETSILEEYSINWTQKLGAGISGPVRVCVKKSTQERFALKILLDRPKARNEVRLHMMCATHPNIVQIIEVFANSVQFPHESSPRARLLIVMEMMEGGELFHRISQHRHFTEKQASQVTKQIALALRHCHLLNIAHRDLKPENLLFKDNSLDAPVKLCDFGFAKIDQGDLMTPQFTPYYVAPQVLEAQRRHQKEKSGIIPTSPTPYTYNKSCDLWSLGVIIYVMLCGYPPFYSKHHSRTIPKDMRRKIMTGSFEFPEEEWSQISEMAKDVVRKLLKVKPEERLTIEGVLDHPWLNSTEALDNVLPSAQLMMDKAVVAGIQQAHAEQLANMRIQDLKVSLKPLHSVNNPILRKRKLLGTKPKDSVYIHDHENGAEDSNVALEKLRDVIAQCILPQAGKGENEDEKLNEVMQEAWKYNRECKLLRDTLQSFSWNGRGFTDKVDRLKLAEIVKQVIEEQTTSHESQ
Nature of the experiment: Percentage PRAK activity remaining in the presence of 0.01uM inhibitor.

The target of experiment [7] is Ribosomal protein S6 kinase beta-1 (Homo sapiens, UniProt P23443). Kind of experiment: Percentage S6K1 activity remaining in the presence of 0.01uM inhibitor.
Ribosomal protein S6 kinase beta-1, sequence (P23443 whole entry, looked up): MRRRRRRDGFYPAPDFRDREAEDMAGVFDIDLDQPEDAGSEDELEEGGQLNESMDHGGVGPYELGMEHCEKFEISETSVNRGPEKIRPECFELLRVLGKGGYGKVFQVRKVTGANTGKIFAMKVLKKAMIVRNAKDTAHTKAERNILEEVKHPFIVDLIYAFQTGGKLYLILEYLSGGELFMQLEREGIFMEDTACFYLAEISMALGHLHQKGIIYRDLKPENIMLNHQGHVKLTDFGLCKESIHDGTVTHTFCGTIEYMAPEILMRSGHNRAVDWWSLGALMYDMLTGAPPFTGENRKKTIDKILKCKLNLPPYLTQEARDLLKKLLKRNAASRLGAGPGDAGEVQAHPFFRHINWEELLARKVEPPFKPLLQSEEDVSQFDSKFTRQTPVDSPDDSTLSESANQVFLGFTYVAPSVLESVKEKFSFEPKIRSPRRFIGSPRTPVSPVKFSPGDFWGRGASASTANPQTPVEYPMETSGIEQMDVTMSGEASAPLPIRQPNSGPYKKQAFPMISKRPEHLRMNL
The target in experiment [8] is T2, Mitogen-activated protein kinase 15 (Homo sapiens) (UniProt Q8TD08).
T2 sequence (whole entry): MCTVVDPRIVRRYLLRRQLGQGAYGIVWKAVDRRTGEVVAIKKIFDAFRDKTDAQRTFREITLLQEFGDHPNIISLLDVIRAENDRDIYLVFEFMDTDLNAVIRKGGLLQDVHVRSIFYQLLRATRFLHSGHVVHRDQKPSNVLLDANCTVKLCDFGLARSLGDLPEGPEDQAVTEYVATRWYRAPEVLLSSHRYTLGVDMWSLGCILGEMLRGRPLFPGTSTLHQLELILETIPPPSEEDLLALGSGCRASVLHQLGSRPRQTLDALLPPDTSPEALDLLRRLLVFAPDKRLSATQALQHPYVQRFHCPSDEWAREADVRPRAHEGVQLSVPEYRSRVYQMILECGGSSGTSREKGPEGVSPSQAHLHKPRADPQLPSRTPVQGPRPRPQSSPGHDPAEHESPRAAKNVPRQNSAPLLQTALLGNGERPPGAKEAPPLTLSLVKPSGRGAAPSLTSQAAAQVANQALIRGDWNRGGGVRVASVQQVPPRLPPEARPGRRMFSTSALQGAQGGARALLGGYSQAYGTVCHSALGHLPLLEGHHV
Nature of the experiment: Percentage ERK8 activity remaining in the presence of 0.01uM inhibitor.

The target in experiment [9] is Mitogen-activated protein kinase 8 (Homo sapiens, UniProt P45983). Nature of the experiment: Percentage JNK1 activity remaining in the presence of 0.01uM inhibitor.
Experiment [10] addresses Mitogen-activated protein kinase 9 (Homo sapiens, UniProt P45984). Nature of the experiment: Percentage JNK2 activity remaining in the presence of 0.01uM inhibitor.
Experiment [11] concerns the target Ribosomal protein S6 kinase alpha-5 (Homo sapiens) (UniProt O75582). Nature of the experiment: Percentage MSK1 activity remaining in the presence of 0.01uM inhibitor.
The target of experiment [12] is Mitogen-activated protein kinase 11 (Homo sapiens) (UniProt Q15759). Kind of experiment: Percentage p38beta activity remaining in the presence of 0.01uM inhibitor.
The target of experiment [13] is Glycogen synthase kinase-3 beta (Homo sapiens, UniProt P49841). Kind of experiment: Percentage GSK3-beta activity remaining in the presence of 0.01uM inhibitor.
Glycogen synthase kinase-3 beta, sequence (P49841 whole entry, looked up): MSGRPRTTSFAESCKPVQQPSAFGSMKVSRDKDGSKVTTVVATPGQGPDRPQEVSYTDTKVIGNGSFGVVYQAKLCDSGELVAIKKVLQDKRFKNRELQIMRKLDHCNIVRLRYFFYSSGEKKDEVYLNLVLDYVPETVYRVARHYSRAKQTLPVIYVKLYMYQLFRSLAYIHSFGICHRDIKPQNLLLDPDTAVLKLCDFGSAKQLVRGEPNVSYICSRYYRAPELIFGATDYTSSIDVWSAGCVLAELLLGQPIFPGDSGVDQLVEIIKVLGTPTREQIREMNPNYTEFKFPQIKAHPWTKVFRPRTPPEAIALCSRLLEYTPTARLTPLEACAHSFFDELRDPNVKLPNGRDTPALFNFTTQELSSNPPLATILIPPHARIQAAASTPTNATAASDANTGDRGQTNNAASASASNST
For experiment [14], the target named is Mitogen-activated protein kinase 10 (Homo sapiens) (UniProt P53779). Nature of the experiment: Percentage JNK3 activity remaining in the presence of 0.01uM inhibitor.
Mitogen-activated protein kinase 10 (Homo sapiens), sequence (P53779 whole entry): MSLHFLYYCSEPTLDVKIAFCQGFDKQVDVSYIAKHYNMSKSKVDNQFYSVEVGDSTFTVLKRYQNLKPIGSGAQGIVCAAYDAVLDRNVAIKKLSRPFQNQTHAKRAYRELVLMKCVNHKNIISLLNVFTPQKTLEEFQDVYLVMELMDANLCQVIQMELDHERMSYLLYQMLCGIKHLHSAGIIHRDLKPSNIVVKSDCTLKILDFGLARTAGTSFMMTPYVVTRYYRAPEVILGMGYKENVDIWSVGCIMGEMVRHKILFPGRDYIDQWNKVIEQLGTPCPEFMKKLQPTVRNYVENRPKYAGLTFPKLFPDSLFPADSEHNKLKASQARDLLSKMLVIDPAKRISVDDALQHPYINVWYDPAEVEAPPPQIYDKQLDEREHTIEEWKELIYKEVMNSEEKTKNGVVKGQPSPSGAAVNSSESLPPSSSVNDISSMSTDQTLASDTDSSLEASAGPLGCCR
The species entered for experiment [15] is Homo sapiens. Nature of the experiment: Percentage PHK activity remaining in the presence of 0.01uM inhibitor.
For experiment [16], the target named is T3, Inhibitor of nuclear factor kappa-B kinase subunit beta (Homo sapiens) (UniProt O14920).
T3 sequence (whole entry): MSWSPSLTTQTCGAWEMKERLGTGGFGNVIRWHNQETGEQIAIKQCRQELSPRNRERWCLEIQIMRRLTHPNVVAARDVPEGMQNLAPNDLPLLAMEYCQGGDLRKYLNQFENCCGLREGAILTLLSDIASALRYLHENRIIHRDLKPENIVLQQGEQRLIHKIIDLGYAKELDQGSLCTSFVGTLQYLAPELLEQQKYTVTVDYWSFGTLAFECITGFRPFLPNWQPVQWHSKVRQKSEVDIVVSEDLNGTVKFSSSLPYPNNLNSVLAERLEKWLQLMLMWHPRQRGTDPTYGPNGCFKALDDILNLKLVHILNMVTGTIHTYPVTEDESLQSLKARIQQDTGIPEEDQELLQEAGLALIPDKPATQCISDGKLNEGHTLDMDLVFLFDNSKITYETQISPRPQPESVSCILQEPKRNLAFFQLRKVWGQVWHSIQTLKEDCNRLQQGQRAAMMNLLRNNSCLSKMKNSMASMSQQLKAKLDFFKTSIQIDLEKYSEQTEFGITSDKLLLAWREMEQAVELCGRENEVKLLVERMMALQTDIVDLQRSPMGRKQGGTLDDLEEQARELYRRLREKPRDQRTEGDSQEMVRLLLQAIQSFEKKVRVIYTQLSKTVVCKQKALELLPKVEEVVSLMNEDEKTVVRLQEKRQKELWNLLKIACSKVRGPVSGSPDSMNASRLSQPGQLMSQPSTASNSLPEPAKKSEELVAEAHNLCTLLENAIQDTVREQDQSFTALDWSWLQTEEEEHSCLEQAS
Nature of the experiment: Percentage IKK-beta activity remaining in the presence of 0.01uM inhibitor.

Mitogen-activated protein kinase 9, sequence (P45984 whole entry, looked up): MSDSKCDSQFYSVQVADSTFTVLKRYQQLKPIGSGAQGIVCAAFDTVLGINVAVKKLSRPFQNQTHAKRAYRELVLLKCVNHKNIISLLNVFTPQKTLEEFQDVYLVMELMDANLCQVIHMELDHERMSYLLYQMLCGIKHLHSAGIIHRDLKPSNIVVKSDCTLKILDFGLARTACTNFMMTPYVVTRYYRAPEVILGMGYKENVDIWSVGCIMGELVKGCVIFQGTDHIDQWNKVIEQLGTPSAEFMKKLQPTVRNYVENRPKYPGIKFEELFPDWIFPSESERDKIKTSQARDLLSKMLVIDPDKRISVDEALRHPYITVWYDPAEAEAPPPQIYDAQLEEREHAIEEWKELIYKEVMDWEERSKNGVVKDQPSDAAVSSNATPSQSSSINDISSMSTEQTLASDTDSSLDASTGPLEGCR
Ribosomal protein S6 kinase alpha-5 (Homo sapiens), sequence (O75582 whole entry, looked up): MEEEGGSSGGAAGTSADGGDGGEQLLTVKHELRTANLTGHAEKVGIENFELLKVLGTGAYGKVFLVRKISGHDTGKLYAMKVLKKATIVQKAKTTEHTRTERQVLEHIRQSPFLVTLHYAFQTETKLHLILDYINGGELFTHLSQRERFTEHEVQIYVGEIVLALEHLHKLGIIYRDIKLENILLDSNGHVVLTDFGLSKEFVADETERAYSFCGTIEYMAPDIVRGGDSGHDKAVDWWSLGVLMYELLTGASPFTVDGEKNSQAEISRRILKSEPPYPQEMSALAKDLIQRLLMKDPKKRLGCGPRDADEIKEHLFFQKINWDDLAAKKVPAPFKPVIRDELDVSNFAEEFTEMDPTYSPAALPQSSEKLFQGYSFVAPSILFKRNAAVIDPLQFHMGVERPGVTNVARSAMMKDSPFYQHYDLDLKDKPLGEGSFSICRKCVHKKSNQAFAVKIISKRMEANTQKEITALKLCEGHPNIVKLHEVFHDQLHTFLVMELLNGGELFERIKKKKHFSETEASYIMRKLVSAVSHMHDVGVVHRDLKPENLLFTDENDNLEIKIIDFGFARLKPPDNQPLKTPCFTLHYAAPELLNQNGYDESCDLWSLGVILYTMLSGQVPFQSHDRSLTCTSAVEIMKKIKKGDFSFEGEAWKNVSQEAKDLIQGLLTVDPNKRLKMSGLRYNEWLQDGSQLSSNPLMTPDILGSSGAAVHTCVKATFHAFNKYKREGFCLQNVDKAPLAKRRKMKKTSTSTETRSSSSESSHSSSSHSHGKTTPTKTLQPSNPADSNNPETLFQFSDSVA
Homeodomain-interacting protein kinase 3 (Homo sapiens), sequence (Q9H422 whole entry, looked up): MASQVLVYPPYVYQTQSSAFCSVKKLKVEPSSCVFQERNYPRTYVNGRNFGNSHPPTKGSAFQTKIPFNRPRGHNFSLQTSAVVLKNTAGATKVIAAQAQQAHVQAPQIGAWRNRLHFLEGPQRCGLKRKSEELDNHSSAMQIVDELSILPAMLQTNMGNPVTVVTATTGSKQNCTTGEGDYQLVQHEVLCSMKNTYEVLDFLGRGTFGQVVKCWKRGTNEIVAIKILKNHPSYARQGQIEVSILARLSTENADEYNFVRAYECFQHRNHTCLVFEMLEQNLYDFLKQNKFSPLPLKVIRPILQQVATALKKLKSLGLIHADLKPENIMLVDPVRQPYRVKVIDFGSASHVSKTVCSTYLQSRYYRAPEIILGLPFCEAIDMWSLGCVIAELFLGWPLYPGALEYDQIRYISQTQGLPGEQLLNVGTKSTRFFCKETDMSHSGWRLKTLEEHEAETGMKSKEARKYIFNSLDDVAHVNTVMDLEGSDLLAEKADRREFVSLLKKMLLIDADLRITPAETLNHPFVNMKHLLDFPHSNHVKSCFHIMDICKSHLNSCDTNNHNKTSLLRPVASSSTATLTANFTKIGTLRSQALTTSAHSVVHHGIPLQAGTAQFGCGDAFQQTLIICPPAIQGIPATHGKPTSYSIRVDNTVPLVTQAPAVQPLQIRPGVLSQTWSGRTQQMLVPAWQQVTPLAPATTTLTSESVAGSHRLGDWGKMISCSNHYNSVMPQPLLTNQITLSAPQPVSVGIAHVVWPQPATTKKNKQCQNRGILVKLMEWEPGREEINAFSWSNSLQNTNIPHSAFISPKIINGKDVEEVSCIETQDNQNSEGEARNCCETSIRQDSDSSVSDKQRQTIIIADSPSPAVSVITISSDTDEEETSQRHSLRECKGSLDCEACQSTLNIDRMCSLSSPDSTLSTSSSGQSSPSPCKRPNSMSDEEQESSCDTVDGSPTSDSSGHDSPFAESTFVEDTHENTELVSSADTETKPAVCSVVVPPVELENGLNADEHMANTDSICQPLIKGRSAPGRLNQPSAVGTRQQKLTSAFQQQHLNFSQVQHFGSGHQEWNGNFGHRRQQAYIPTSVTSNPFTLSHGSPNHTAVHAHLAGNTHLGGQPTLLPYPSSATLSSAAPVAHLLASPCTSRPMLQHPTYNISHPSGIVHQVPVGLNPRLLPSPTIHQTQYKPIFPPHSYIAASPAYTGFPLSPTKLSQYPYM

`Cn1cc(C2=C(c3cn(CCCSC(=N)N)c4ccccc34)C(=O)NC2=O)c2ccccc21`: in experiment [1], the Activity was determined as 78%.

As to `O=C(NCCCNc1nc(Nc2cccc(NC(=O)N3CCCC3)c2)ncc1I)c1cccs1`, the Activity worked out at 94% in experiment [1]; 86% in experiment [2]; 96% in experiment [3]; 97% in experiment [4]; 102% in [5]; 97% in experiment [6]. The Activity was 100% in experiment [7]; 40% in [8] (filed as antagonist); 104% in experiment [9]; 101% in experiment [10]; 88% in experiment [11]; 94% in [12]. Further, the Activity turned out to be 82% in experiment [13], 93% in experiment [14], 94% in experiment [15] and 108% in experiment [16].

For the compound `Cn1c2ccccc2c2c3c(c4c5ccccc5n(CCC#N)c4c21)CNC3=O`, the Activity in experiment [1] is 74%.

Take `CN[C@@H]1C[C@H]2O[C@@](C)([C@@H]1OC)n1c3ccccc3c3c4c(c5c6ccccc6n2c5c31)C(=O)N[C@H]4O` (stereo in doubt): the Activity in experiment [2] was 105%; in experiment [3], 104%; in [4] (filed as antagonist), 50%; in [5], 63%; in [6] it was 83%; in [7], 96%. Moreover, the Activity in experiment [8] came out at 92%; in experiment [9] it was 79%; in [10], 92%; in experiment [11] it was 68%; in experiment [12], 105%; in experiment [13], 77%. The values for the Activity in experiment [14], in experiment [15] (filed as antagonist) and in [16] were 107%, 5% and 86%, respectively.

Take `CC(C)CCN1c2nc(Nc3cc(F)c(O)c(F)c3)ncc2N(C)C(=O)C1C` (stereo not given): the Activity in [1] worked out at 104%.

As to `Cc1n[nH]c2ccc(-c3cncc(OC[C@@H](N)Cc4c[nH]c5ccccc45)c3)cc12`, the Activity in experiment [1] was 71%; in [2] it was 131%; in experiment [3], 95%; in experiment [4], 97%; in experiment [5] (filed as antagonist), 26%; in experiment [6], 107%. Moreover, the Activity in experiment [7] was 88%; in [8], 61%; in experiment [9] it was 89%; in experiment [10], 94%; in experiment [11] (filed as antagonist), 19%; in experiment [12], 114%. Besides, the Activity was 81% in experiment [13], 81% in experiment [14], 86% in experiment [15] and 93% in experiment [16].
